Measurements as given in ChEMBL document CHEMBL1140040, “Synthesis and cytotoxic activity of some novel polycyclic gamma-butyrolactones” (Bioorg Med Chem Lett, 2008).

How the values were obtained:
[1] = system: DU-145; assay: Cytotoxicity against human DU145 cells assessed as age growth inhibition at 10 uM after 48 hrs by sulforhodamine B assay; type: functional; settings: DU-145, 48 h, read-out: GI
[2] = system: SF-295; assay: Cytotoxicity against human SF295 cells assessed as age growth inhibition at 50 uM after 48 hrs by sulforhodamine B assay; type: functional; settings: SF-295, 48 h, read-out: GI
[3] = system: HCT-15; assay: Cytotoxicity against human HCT15 cells assessed as age growth inhibition at 10 uM after 48 hrs by sulforhodamine B assay; type: functional; settings: HCT-15, 48 h, read-out: GI
[4] = system: HEp-2; assay: Antiproliferative activity against human HEP2 cells after 48 hrs by sulforhodamine B assay; type: functional, cell-based; settings: HEp-2, 48 h
[5] = system: A549; assay: Cytotoxicity against human A549 cells assessed as age growth inhibition at 100 uM after 48 hrs by sulforhodamine B assay; type: functional; settings: A549, 48 h, read-out: GI
[6] = system: DU-145; assay: Cytotoxicity against human DU145 cells assessed as age growth inhibition at 100 uM after 48 hrs by sulforhodamine B assay; type: functional; settings: DU-145, 48 h, read-out: GI
[7] = system: COLO 205; assay: Antiproliferative activity against human COLO205 cells after 48 hrs by sulforhodamine B assay; type: functional, cell-based; settings: COLO 205, 48 h
[8] = system: HCT-15; assay: Cytotoxicity against human HCT15 cells assessed as age growth inhibition at 100 uM after 48 hrs by sulforhodamine B assay; type: functional; settings: HCT-15, 48 h, read-out: GI
[9] = system: HOP-62; assay: Antiproliferative activity against human HOP62 cells after 48 hrs by sulforhodamine B assay; type: functional, cell-based; settings: HOP-62, 48 h
[10] = system: HCT-15; assay: Antiproliferative activity against human HCT15 cells after 48 hrs by sulforhodamine B assay; type: functional, cell-based; settings: HCT-15, 48 h
[11] = system: COLO 205; assay: Cytotoxicity against human COLO205 cells assessed as age growth inhibition at 10 uM after 48 hrs by sulforhodamine B assay; type: functional; settings: COLO 205, 48 h, read-out: GI
[12] = system: DU-145; assay: Antiproliferative activity against human DU145 cells after 48 hrs by sulforhodamine B assay; type: functional, cell-based; settings: DU-145, 48 h
[13] = system: SK-OV-3; assay: Cytotoxicity against human SKOV3 cells assessed as age growth inhibition at 50 uM after 48 hrs by sulforhodamine B assay; type: functional; settings: SK-OV-3, 48 h, read-out: GI
[14] = system: HEp-2; assay: Cytotoxicity against human HEP2 cells assessed as age growth inhibition at 100 uM after 48 hrs by sulforhodamine B assay; type: functional; settings: HEp-2, 48 h, read-out: GI
[15] = system: A549; assay: Cytotoxicity against human A549 cells assessed as age growth inhibition at 50 uM after 48 hrs by sulforhodamine B assay; type: functional; settings: A549, 48 h, read-out: GI
[16] = system: DU-145; assay: Cytotoxicity against human DU145 cells assessed as age growth inhibition at 50 uM after 48 hrs by sulforhodamine B assay; type: functional; settings: DU-145, 48 h, read-out: GI
[17] = system: SK-OV-3; assay: Cytotoxicity against human SKOV3 cells assessed as age growth inhibition at 10 uM after 48 hrs by sulforhodamine B assay; type: functional; settings: SK-OV-3, 48 h, read-out: GI
[18] = system: SF-295; assay: Antiproliferative activity against human SF295 cells after 48 hrs by sulforhodamine B assay; type: functional, cell-based; settings: SF-295, 48 h
[19] = system: IGROV-1; assay: Cytotoxicity against human IGROV1 cells assessed as age growth inhibition at 50 uM after 48 hrs by sulforhodamine B assay; type: functional; settings: IGROV-1, 48 h, read-out: GI
[20] = system: HOP-62; assay: Cytotoxicity against human HOP62 cells assessed as age growth inhibition at 10 uM after 48 hrs by sulforhodamine B assay; type: functional; settings: HOP-62, 48 h, read-out: GI
[21] = system: HEp-2; assay: Cytotoxicity against human HEP2 cells assessed as age growth inhibition at 10 uM after 48 hrs by sulforhodamine B assay; type: functional; settings: HEp-2, 48 h, read-out: GI
[22] = system: HOP-62; assay: Cytotoxicity against human HOP62 cells assessed as age growth inhibition at 100 uM after 48 hrs by sulforhodamine B assay; type: functional; settings: HOP-62, 48 h, read-out: GI
[23] = system: HOP-62; assay: Cytotoxicity against human HOP62 cells assessed as age growth inhibition at 50 uM after 48 hrs by sulforhodamine B assay; type: functional; settings: HOP-62, 48 h, read-out: GI
[24] = system: A549; assay: Antiproliferative activity against human A549 cells after 48 hrs by sulforhodamine B assay; type: functional, cell-based; settings: A549, 48 h
[25] = system: SF-295; assay: Cytotoxicity against human SF295 cells assessed as age growth inhibition at 100 uM after 48 hrs by sulforhodamine B assay; type: functional; settings: SF-295, 48 h, read-out: GI
[26] = system: SK-OV-3; assay: Cytotoxicity against human SKOV3 cells assessed as age growth inhibition at 100 uM after 48 hrs by sulforhodamine B assay; type: functional; settings: SK-OV-3, 48 h, read-out: GI
[27] = system: SF-295; assay: Cytotoxicity against human SF295 cells assessed as age growth inhibition at 10 uM after 48 hrs by sulforhodamine B assay; type: functional; settings: SF-295, 48 h, read-out: GI
[28] = system: IGROV-1; assay: Cytotoxicity against human IGROV1 cells assessed as age growth inhibition at 100 uM after 48 hrs by sulforhodamine B assay; type: functional; settings: IGROV-1, 48 h, read-out: GI
[29] = system: HEp-2; assay: Cytotoxicity against human HEP2 cells assessed as age growth inhibition at 50 uM after 48 hrs by sulforhodamine B assay; type: functional; settings: HEp-2, 48 h, read-out: GI
[30] = system: COLO 205; assay: Cytotoxicity against human COLO205 cells assessed as age growth inhibition at 100 uM after 48 hrs by sulforhodamine B assay; type: functional; settings: COLO 205, 48 h, read-out: GI
[31] = system: HCT-15; assay: Cytotoxicity against human HCT15 cells assessed as age growth inhibition at 50 uM after 48 hrs by sulforhodamine B assay; type: functional; settings: HCT-15, 48 h, read-out: GI
[32] = system: A549; assay: Cytotoxicity against human A549 cells assessed as age growth inhibition at 10 uM after 48 hrs by sulforhodamine B assay; type: functional; settings: A549, 48 h, read-out: GI
[33] = system: IGROV-1; assay: Antiproliferative activity against human IGROV1 cells after 48 hrs by sulforhodamine B assay; type: functional, cell-based; settings: IGROV-1, 48 h
[34] = system: COLO 205; assay: Cytotoxicity against human COLO205 cells assessed as age growth inhibition at 50 uM after 48 hrs by sulforhodamine B assay; type: functional; settings: COLO 205, 48 h, read-out: GI
[35] = system: SK-OV-3; assay: Antiproliferative activity against human SKOV3 cells after 48 hrs by sulforhodamine B assay; type: functional, cell-based; settings: SK-OV-3, 48 h
[36] = system: IGROV-1; assay: Cytotoxicity against human IGROV1 cells assessed as age growth inhibition at 10 uM after 48 hrs by sulforhodamine B assay; type: functional; settings: IGROV-1, 48 h, read-out: GI

IC50 [7] [µM]	IC50 [10] [µM]	IC50 [12] [µM]	Compound	inhibition of growth at 10 µM [1] [%]	inhibition of growth at 50 µM [2] [%]	inhibition of growth at 10 µM [3] [%]	IC50 [4] [µM]	inhibition of growth at 100 µM [5] [%]	inhibition of growth at 100 µM [6] [%]	inhibition of growth at 100 µM [8] [%]	IC50 [9] [µM]	inhibition of growth at 10 µM [11] [%]	inhibition of growth at 50 µM [13] [%]	inhibition of growth at 100 µM [14] [%]	inhibition of growth at 50 µM [15] [%]	inhibition of growth at 50 µM [16] [%]	inhibition of growth at 10 µM [17] [%]	IC50 [18] [µM]	inhibition of growth at 50 µM [19] [%]	inhibition of growth at 10 µM [20] [%]	also measured
63.6	75.3	87.6	CC1(C)CCC[C@@]2(C)C1=C[C@H]1C(=O)O[C@H](c3ccccc3)[C@H]12	15	18	9	> 100	51	56	56	> 100	14	30	37	29	32	20	> 100	22	16	inhibition of growth at 10 µM [21]: 6%; inhibition of growth at 100 µM [22]: 28%; inhibition of growth at 50 µM [23]: 21%; IC50 [24]: 97.6 µM; inhibition of growth at 100 µM [25]: 22%; inhibition of growth at 100 µM [26]: 57%; inhibition of growth at 10 µM [27]: 15%; inhibition of growth at 100 µM [28]: 63%; inhibition of growth at 50 µM [29]: 18%; inhibition of growth at 100 µM [30]: 79%; inhibition of growth at 50 µM [31]: 46%; inhibition of growth at 10 µM [32]: 11%; IC50 [33]: 83.7 µM; inhibition of growth at 50 µM [34]: 34%; IC50 [35]: 86.5 µM; inhibition of growth at 10 µM [36]: 0%
79.5	50	63.3	CC1(C)CCC[C@@]2(C)C1=C[C@H]1C(=O)O[C@H](c3ccco3)[C@H]12	17	17	14	98.8	25	76	56	> 100	16	9	52	20	37	6	> 100	24	2	inhibition of growth at 10 µM [21]: 8%; inhibition of growth at 100 µM [22]: 46%; inhibition of growth at 50 µM [23]: 8%; IC50 [24]: > 100 µM; inhibition of growth at 100 µM [25]: 38%; inhibition of growth at 100 µM [26]: 57%; inhibition of growth at 10 µM [27]: 0%; inhibition of growth at 100 µM [28]: 67%; inhibition of growth at 50 µM [29]: 19%; inhibition of growth at 100 µM [30]: 64%; inhibition of growth at 50 µM [31]: 50%; inhibition of growth at 10 µM [32]: 19%; IC50 [33]: 79.2 µM; inhibition of growth at 50 µM [34]: 20%; IC50 [35]: 91 µM; inhibition of growth at 10 µM [36]: 1%
> 100	78	> 100	Cc1ccc([C@H]2OC(=O)[C@@H]3C=C4C(C)(C)CCC[C@]4(C)[C@H]23)cc1	6	20	11	> 100	42	35	55	> 100	10	29	27	29	10	19	> 100	29	2	inhibition of growth at 10 µM [21]: 9%; inhibition of growth at 100 µM [22]: 21%; inhibition of growth at 50 µM [23]: 13%; IC50 [24]: > 100 µM; inhibition of growth at 100 µM [25]: 21%; inhibition of growth at 100 µM [26]: 30%; inhibition of growth at 10 µM [27]: 19%; inhibition of growth at 100 µM [28]: 40%; inhibition of growth at 50 µM [29]: 25%; inhibition of growth at 100 µM [30]: 34%; inhibition of growth at 50 µM [31]: 44%; inhibition of growth at 10 µM [32]: 13%; IC50 [33]: > 100 µM; inhibition of growth at 50 µM [34]: 22%; IC50 [35]: > 100 µM; inhibition of growth at 10 µM [36]: 0%
